From ChEMBL document CHEMBL1201862, “PubChem BioAssay data set” (2004)
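Step 1: Grow cells in 96-well plates. Step 2: Expose to compound for 48 hours at 5 concentrations. Step 3: Interpolate endpoints linearly; if unreached, use highest concentration. GI50 is the concentration that inhibits growth by half.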 The source made the active and inactive calls. Rule as the data show it: active = GI50 up to about 1.1 µM and inactive = higher.

What was measured:
Experiment in all cases: inhibition of tumour cell growth, NCI panel, 48 h
[1] = system: HOP-62
[2] = system: KM12
[3] = system: 786-0
[4] = system: MDA-MB-435
[5] = system: SK-MEL-5
[6] = system: SF-295
[7] = system: HOP-92
[8] = system: U-251
[9] = system: COLO 205
[10] = system: OVCAR-5
[11] = system: NCI-H460
[12] = system: LOX IMVI
[13] = system: MDA-N
[14] = system: NCI/ADR-RES
[15] = system: Malme-3M
[16] = system: SR
[17] = system: A549
[18] = system: PC-3
[19] = system: NCI-H226
[20] = system: UACC-257
[21] = system: EKVX
[22] = system: HCT-15
[23] = system: SF-268
[24] = system: M14
[25] = system: A498
[26] = system: SN12C
[27] = system: SNB-75
[28] = system: UO-31
[29] = system: HCT-116
[30] = system: DU-145
[31] = system: CAKI-1
[32] = system: Hs-578T
[33] = system: NCI-H522
[34] = system: RPMI-8226
[35] = system: MDA-MB-231
[36] = system: HT-29
[37] = system: SK-MEL-2
[38] = system: HL-60
[39] = system: SNB-19
[40] = system: SK-MEL-28
[41] = system: SK-OV-3
[42] = system: MCF7
[43] = system: SW-620
[44] = system: BT-549
[45] = system: TK-10
[46] = system: ACHN
[47] = system: OVCAR-4
[48] = system: IGROV-1
[49] = system: CCRF-CEM
[50] = system: OVCAR-8
[51] = system: NCI-H23
[52] = system: K562
[53] = system: UACC-62
[54] = system: RXF 393
[55] = system: HCC 2998
[56] = system: SF-539
[57] = system: T47D
[58] = system: OVCAR-3
[59] = system: MOLT-4

Cc1cn([C@@H]2C[C@](C)(CO)N(C)O2)c(=O)[nH]c1=O
GI50 [1]: > 100 µM (inactive)
GI50 [2]: > 100 µM (inactive)
GI50 [3]: > 100 µM (inactive)
GI50 [4]: > 100 µM (inactive)
GI50 [5]: > 100 µM (inactive)
GI50 [6]: > 100 µM (inactive)
GI50 [7]: > 100 µM (inactive)
GI50 [8]: > 100 µM (inactive)
GI50 [9]: > 100 µM (inactive)
GI50 [10]: > 100 µM (inactive)
GI50 [11]: > 100 µM (inactive)
GI50 [12]: > 100 µM (inactive)
GI50 [13]: > 100 µM (inactive)
GI50 [14]: > 100 µM (inactive)
GI50 [15]: > 100 µM (inactive)
GI50 [16]: > 100 µM (inactive)
GI50 [17]: > 100 µM (inactive)
GI50 [18]: > 100 µM (inactive)
GI50 [19]: > 100 µM (inactive)
GI50 [20]: > 100 µM (inactive)
GI50 [21]: > 100 µM (inactive)
GI50 [22]: > 100 µM
GI50 [23]: > 100 µM (inactive)
GI50 [24]: > 100 µM (inactive)
GI50 [25]: > 100 µM (inactive)
GI50 [26]: > 100 µM (inactive)
GI50 [27]: 8.53 µM (inactive)
GI50 [28]: > 100 µM (inactive)
GI50 [29]: > 100 µM (inactive)
GI50 [30]: > 100 µM (inactive)
GI50 [31]: > 100 µM (inactive)
GI50 [32]: > 100 µM (inactive)
GI50 [33]: > 100 µM (inactive)
GI50 [34]: > 100 µM (inactive)
GI50 [35]: > 100 µM (inactive)
GI50 [36]: > 100 µM (inactive)
GI50 [37]: > 100 µM (inactive)
GI50 [38]: > 100 µM (inactive)
GI50 [39]: > 100 µM (inactive)
GI50 [40]: > 100 µM (inactive)
GI50 [41]: > 100 µM (inactive)
GI50 [42]: > 100 µM (inactive)
GI50 [43]: > 100 µM (inactive)
GI50 [44]: > 100 µM (inactive)
GI50 [45]: > 100 µM (inactive)
GI50 [46]: > 100 µM (inactive)
GI50 [47]: > 100 µM (inactive)
GI50 [48]: > 100 µM (inactive)
GI50 [49]: > 100 µM (inactive)
GI50 [50]: > 100 µM (inactive)
GI50 [51]: > 100 µM (inactive)
GI50 [52]: > 100 µM (inactive)
GI50 [53]: > 100 µM (inactive)
GI50 [54]: > 100 µM (inactive)
GI50 [55]: > 100 µM (inactive)

COc1cc2c(cc1O)CCN[C@@]21CS[C@H]2c3c(OC(C)=O)c(C)c4c(c3C(COC1=O)N1C2C2NC(Cc3cc(C)c(OC)c(O)c32)[C@@H]1O)OCO4 (stereo partly drawn)
GI50 [1]: < 0.01 µM (active)
GI50 [2]: < 0.01 µM (active)
GI50 [3]: < 0.01 µM (active)
GI50 [4]: < 0.01 µM (active)
GI50 [5]: < 0.01 µM (active)
GI50 [6]: < 0.01 µM (active)
GI50 [7]: < 0.01 µM (active)
GI50 [8]: < 0.01 µM (active)
GI50 [9]: < 0.01 µM (active)
GI50 [10]: < 0.01 µM (active)
GI50 [11]: < 0.01 µM (active)
GI50 [14]: < 0.01 µM (active)
GI50 [17]: < 0.01 µM (active)
GI50 [18]: < 0.01 µM (active)
GI50 [20]: < 0.01 µM (active)
GI50 [21]: < 0.01 µM (active)
GI50 [23]: < 0.01 µM (active)
GI50 [24]: < 0.01 µM (active)
GI50 [25]: < 0.01 µM (active)
GI50 [28]: < 0.01 µM (active)
GI50 [29]: < 0.01 µM (active)
GI50 [30]: < 0.01 µM (active)
GI50 [31]: < 0.01 µM (active)
GI50 [32]: < 0.01 µM (active)
GI50 [33]: < 0.01 µM (active)
GI50 [34]: < 0.01 µM (active)
GI50 [35]: < 0.01 µM (active)
GI50 [36]: < 0.01 µM (active)
GI50 [56]: < 0.01 µM (active)
GI50 [37]: < 0.01 µM (active)
GI50 [38]: < 0.01 µM (active)
GI50 [39]: < 0.01 µM (active)
GI50 [40]: < 0.01 µM (active)
GI50 [41]: < 0.01 µM (active)
GI50 [42]: < 0.01 µM (active)
GI50 [43]: < 0.01 µM (active)
GI50 [44]: < 0.01 µM (active)
GI50 [45]: < 0.01 µM (active)
GI50 [46]: < 0.01 µM (active)
GI50 [47]: < 0.01 µM (active)
GI50 [48]: < 0.01 µM (active)
GI50 [49]: < 0.01 µM (active)
GI50 [50]: < 0.01 µM (active)
GI50 [51]: < 0.01 µM (active)
GI50 [52]: < 0.01 µM (active)
GI50 [54]: < 0.01 µM (active)
GI50 [57]: < 0.01 µM (active)

O=S1(=O)OCCCOS(=O)(=O)C1(Br)Br
GI50 [1]: 0.743 µM (active)
GI50 [2]: > 100 µM (inactive)
GI50 [3]: > 100 µM (inactive)
GI50 [4]: > 100 µM (inactive)
GI50 [5]: > 100 µM (inactive)
GI50 [6]: > 100 µM (inactive)
GI50 [8]: > 100 µM (inactive)
GI50 [9]: > 100 µM (inactive)
GI50 [10]: > 100 µM (inactive)
GI50 [12]: > 100 µM (inactive)
GI50 [13]: > 100 µM (inactive)
GI50 [14]: > 100 µM (inactive)
GI50 [15]: > 100 µM (inactive)
GI50 [16]: > 100 µM (inactive)
GI50 [17]: > 100 µM (inactive)
GI50 [18]: > 100 µM (inactive)
GI50 [19]: > 100 µM (inactive)
GI50 [20]: > 100 µM (inactive)
GI50 [21]: > 100 µM (inactive)
GI50 [22]: > 100 µM
GI50 [23]: > 100 µM (inactive)
GI50 [24]: > 100 µM (inactive)
GI50 [26]: > 100 µM (inactive)
GI50 [27]: > 100 µM (inactive)
GI50 [28]: > 100 µM (inactive)
GI50 [29]: > 100 µM (inactive)
GI50 [58]: > 100 µM (inactive)
GI50 [30]: > 100 µM (inactive)
GI50 [31]: > 100 µM (inactive)
GI50 [32]: 62.2 µM (inactive)
GI50 [33]: > 100 µM (inactive)
GI50 [34]: > 100 µM (inactive)
GI50 [36]: > 100 µM (inactive)
GI50 [37]: > 100 µM (inactive)
GI50 [38]: > 100 µM (inactive)
GI50 [59]: > 100 µM (inactive)
GI50 [39]: > 100 µM (inactive)
GI50 [40]: > 100 µM (inactive)
GI50 [41]: > 100 µM (inactive)
GI50 [42]: > 100 µM (inactive)
GI50 [43]: > 100 µM (inactive)
GI50 [44]: > 100 µM (inactive)
GI50 [45]: > 100 µM (inactive)
GI50 [46]: > 100 µM (inactive)
GI50 [47]: > 100 µM (inactive)
GI50 [49]: > 100 µM (inactive)
GI50 [50]: > 100 µM (inactive)
GI50 [51]: > 100 µM (inactive)
GI50 [53]: > 100 µM (inactive)
GI50 [54]: > 100 µM (inactive)
GI50 [57]: > 100 µM (inactive)
